Source: patent US20240285808A1, “MOLECULAR PROBES FOR IN VIVO DETECTION OF ALDEHYDES” (The General Hospital Corporation, priority 2021, published 2024)
Like-named read-outs stand apart in the source and are kept apart here.

Key:
[1] = Reaction rates with butyraldehyde measured by HPLC-ICP-MS (Method B); assay type: physicochemical; conditions: Method b: butyraldehyde 100 μM, probe 25 μM, pH 7.40
Experimental: Method B: Reaction Rates of Compounds with Butyraldehyde Measured by HPLC-ICP-MS
The reactions were conducted in pH 7.40 phosphate-buffered with butyraldehyde concentration of 100 μM and hydrazine probes at 25 μM. Concentrations of unreacted starting material and condensation products were determined at 10 min time intervals over 2 hours based on their relative integrations. The values were fit to a standard first order rate constant linear equation and the rate constant was extracted from the slope.
Reaction with Butyraldehyde Monitored by HPLC-ICP-MS
Reactions were conducted in pH 7.4 phosphate-buffered saline with butyraldehyde concentration of 100 μM and hydrazine probes at 25 μM. Concentrations of unreacted starting material and condensation products were determined based on their relative integrations at 12 min time intervals over 2 hours.

[2] = Kinetics of hydrolysis of butyraldehyde condensation products; assay type: physicochemical
Experimental: Quantitative Measurements of Kinetics of Hydrolysis:
One mM solutions of Mn-15-Ald, Mn-16-Ald and Mn-17-Ald (where Mn-Ald refers to the reaction product with either Mn-15, Mn-16, or Mn-17) were prepared by the following procedure: 1 mM (1 mL) of Mn-15, Mn-16 or Mn-17 were prepared in PBS (pH 7.4) followed by addition of butyraldehyde (14.4 mg, […]). The mixture was rocked gently under room temperature for 10 min and then freeze-dried for 12 hours. Then, the obtained white solid was redissolved in 1 mL water.
The HPLC trace of each butyraldehyde reaction product was measured by Method 25 (Mn-15-Ald) and Method 26 (Mn-16-Ald, Mn-17-Ald). Then, a 37% stock solution of formaldehyde was added to give a final formaldehyde concentration of 200 mM.
The hydrolysis of the hydrazone/oxime is reversible. An excess of formaldehyde was added to trap the liberated nitrogen base and thereby push the hydrolysis reaction to completion, allowing the hydrolysis reaction to be monitored without interference from the reverse reaction. So, the kinetics for hydrolysis of Mn-15-Ald, Mn-16-Ald and Mn-17-Ald follows the rate law.
where Y is the % hydrolysis, t is time, kobs,H is the first-order rate constant, and Ymax is the % hydrolysis at t=∞. Kinetic traces were obtained in triplicate, and half-lives were calculated with equation 20: […]
The novel Mn-PC2A derivatives (FIG. 1A) were synthesized in 6 steps from the pyclen macrocycle. Hydrazone formation kinetics with butyraldehyde as a model compound were measured by UV spectroscopy at 220 nm, 25° C., pH 7.4, PBS. Hydrazone hydrolysis kinetics were measured by HPLC with UV detection at 220 nm using excess formaldehyde to trap the liberated hydrazine and prevent the reverse reaction. Allysine-modified BSA (BSA-Ald, 17.4 mg/mL, […] aldehyde) as a soluble model protein or BSA (17.3 mg/mL, 16.8 μM aldehyde) and Mn-15 or Mn-17 (50-200 μM) were incubated at 37° C. for 3 hours, and 1/T1 was measured at 1.4 T, 37° C., and plotted vs concentration to obtain relaxivity. The protein bound probe was isolated by ultrafiltration and the relaxivity of the protein-bound fraction measured. All Mn concentrations were measured by ICP-MS. Liver fibrosis was induced in male C57BL/6 mice by oral gavage with CCl4 for 12 weeks, 2-3 times per week, while control mice received vehicle (olive oil). 3D FLASH images (TR/TE/FA=15 ms/2 ms/30°, 0.25 mm^3 spatial resolution) were acquired on a 4.7 T Bruker Biospec prior to and dynamically for 40 min p.i. of 100 μmol/kg Mn-15. Liver to muscle contrast to noise was calculated as CNR=(SILiver−SIMuscle)/SDAir where SI=signal intensity and SD=standard deviation in SI.

[3] = Biodistribution of ^nat/52Mn-based probes in naïve mice; assay type: in vivo, mouse; conditions: 24 h post injection
Experimental: Example 32. Radiolabeling of Compounds 15-18 with ^52Mn and Preparation of ^52/natMn Complex
^52MnCl2 (5 mCi) was received from the cyclotron facility at the Alabama at Birmingham and diluted to 500 μL with 0.1 M HCl. Solution of […] (50 μL, 1.0 mg in 1 mL of 1.5 M NaOAc buffer, pH 4.5) was mixed with 50 μL of ^52MnCl2. The reaction mixture was kept at room temperature for 15 min and diluted with 200 μL of sterile PBS. The injected dose of ^52/natMn complex was obtained by mixing solution of ^52Mn labeled Compound 15-18 with stock solution of ^natMn labeled Compound 15-18 (^natMn final concentration: 30 mM).
Bleomycin-injured mice at 14 days after injury were sedated and then injected with Compound 19, Compound 20, Gd-CHyd (Akam, E. A., et al. Improving the reactivity of hydrazine-bearing MRI probes for in vivo imaging of lung fibrogenesis. Chemical Science 11, 224-231 (2020)) formulated to contain an equal concentration of Eu-DOTA as a non-binding control probe. Animals were then euthanized at 30 minutes after injection. The lungs were harvested separately, along with blood, tail and liver. Each sample was analyzed by ICP-MS for gadolinium and europium content, and the lungs were also assessed for hydroxyproline content. Selectivity is reported as the ratio of Gd to Eu. All animals were dosed via tail vein injection at 100 nmol/g body weight from 30 mM solutions of gadolinium probes with 30 mM Eu-DOTA as determined by ICP-MS. For PET probes, Compounds 1-8 were radiolabeled with either ^68Ga or ^64Cu and the dose was delivered as a bolus injection through tail vein. Animals were euthanized 90 min post injection and their organs and tissues were harvested and counted using a gamma counter. For an imaging study with a PET tracer, animals were injected inside PET/MRI scanner and scanned dynamically for 60 min under anesthesia. The animals were euthanized 90 min post injection and their organs and tissues were counted using a gamma counter. The biodistribution of Mn-15, Mn-16, Mn-17, and Mn-18 was determined by injecting a mixture of ^52/nat complex into naïve mice and activity in each tissue were measured 24 hours post injection.

[4] = butyraldehyde reaction product, formaldehyde 200 mM as trap

Row | SMILES | k (second order rate constant) [1] [M⁻¹ s⁻¹] | hydrolysis rate constant [2] [s⁻¹] | times higher hydrolysis rate constant compared to Mn-17 [2] [fold] | hydrolysis rate constant [2, 4] | Biodistribution, Blood [3] [% ID/g] | Biodistribution, Bone [3] [% ID/g] | Biodistribution, Brain [3] [% ID/g] | Biodistribution, Heart [3] [% ID/g] | Biodistribution, Intestine [3] [% ID/g] | Biodistribution, Kidney [3] [% ID/g] | Biodistribution, Liver [3] [% ID/g] | Biodistribution, Lung [3] [% ID/g] | Biodistribution, Muscle [3] [% ID/g] | Biodistribution, Skin [3] [% ID/g] | Biodistribution, Spleen [3] [% ID/g] | Biodistribution, Stomach [3] [% ID/g]
1 | NN1CCN(C(=O)CCC(C(=O)[O-])N2CCN(CC(=O)[O-])CCN(CC(=O)[O-])CCN(C(CCC(=O)N3CCN(N)CC3)C(=O)[O-])CC2)CC1.[Gd+3] (stereo not drawn) [Gd-9, cis-1,4-Gd-(CHyd)2] | 3.6 | – | – | – | – | – | – | – | – | – | – | – | – | – | – | –
2 | NN1CCN(C(=O)CCC(C(=O)[O-])N2CCN(CC(=O)[O-])CCN(C(CCC(=O)N3CCN(N)CC3)C(=O)[O-])CCN(CC(=O)[O-])CC2)CC1.[Gd+3] (stereo not drawn) [Gd-10, trans-1,7-Gd-(CHyd)2] | 3.5 | – | – | – | – | – | – | – | – | – | – | – | – | – | – | –
3 | NNC(CCC(=O)NCCCN1CCN(CC(=O)[O-])Cc2cccc(n2)CN(CC(=O)[O-])CC1)C(=O)O.[Mn+2] (stereo not drawn) [Mn-15] | – | 0.00103 | 2 | 1.03 ± 0.15 ×10^−3 s^−1 | 0.0018 | 0.0385 | 0.0156 | 0.0532 | 0.0665 | 0.7021 | 0.2186 | 0.1312 | 0.0154 | 0.0719 | 0.0843 | 0.0759
4 | NOC(CCC(=O)NCCCN1CCN(CC(=O)[O-])Cc2cccc(n2)CN(CC(=O)[O-])CC1)C(=O)O.[Mn+2] (stereo not drawn) [Mn-16] | – | 7.9e-07 | – | 0.79 ± 0.03 ×10^−6 s^−1 | 0.0051 | 0.1378 | 0.0275 | 0.1579 | 0.1330 | 0.9664 | 0.3950 | 0.4469 | 0.0669 | 0.9457 | 0.1978 | 0.1638
5 | NNCC(=O)NCCCN1CCN(CC(=O)[O-])Cc2cccc(n2)CN(CC(=O)[O-])CC1.[Mn+2] [Mn-17] | – | 0.00041 | – | 0.41 ± 0.01 ×10^−3 s^−1 | 0.0020 | 0.0414 | 0.0170 | 0.0675 | 0.0556 | 0.5387 | 0.2125 | 0.1954 | 0.0196 | 0.0925 | 0.0965 | 0.0681
6 | CN(C)C(CCC(=O)NCCCN1CCN(CC(=O)[O-])Cc2cccc(n2)CN(CC(=O)[O-])CC1)C(=O)O.[Mn+2] (stereo not drawn) [Mn-18] | – | – | – | – | 0.0013 | 0.0227 | 0.0145 | 0.0364 | 0.0355 | 0.5290 | 0.1833 | 0.0599 | 0.0132 | 0.0243 | 0.0616 | 0.0477
